This is an account of results in ChEMBL document CHEMBL4196140, “Spiro-Phthalides and Isocoumarins Isolated from the Marine-Sponge-Derived Fungus Setosphaeria sp. SCSIO41009” (J Nat Prod, 2018).

The source made the active and inactive calls. The calls are words filed in the database; no cut-off is given here.

In this experiment the test system is Influenza A virus. Nature of the experiment: Antiviral activity against Influenza A virus (A/Puerto Rico/8/34(H1N1)) harboring H274Y mutant infected in MDCK cells assessed as inhibition of virus-induced cytopathic effect after 48 hrs by MTT assay. Type of experiment: functional, organism-based. To be noted: A/Puerto Rico/8/1934(H1N1). On the technique in general: Damage to the host cells serves as the signal in cytopathic effect assays.

Consider `CCC[C@@H]1C[C@H]2OC(=O)c3c(cc(OC)c(OC)c3O)[C@@H]2O1`, for which the inhibition entry is “inactive”. `CCCCc1c(OC)cc(=O)oc1C`: the inhibition entry was “inactive”.

In the case of `COc1cc(=O)oc(C)c1CCCC(=O)O`, the inhibition entry is “inactive”. `CCCCOCc1c(O)cc(C)c2c1Oc1c(C)cc(O)c(C)c1OC2=O`: the inhibition result is “inactive”.

For the compound `CCC[C@H]1C[C@H](O)[C@]2(OC(=O)c3c2cc(OC)c(OC)c3O)O1`, the inhibition entry is “inactive”.

For `CCC[C@H]1C[C@H](O)[C@@]2(OC(=O)c3c2cc(OC)c(OC)c3O)O1`, the inhibition entry is “inactive”. With `COCc1c(O)cc(C)c2c1Oc1c(C)cc(O)c(C)c1OC2=O` the entry was “inactive”; with `CCCCC1=C(OC)C(=O)OC1(C)O` (racemic), “inactive”; with `COC(=O)CCCc1c(OC)cc(=O)oc1C`, “inactive”. The same measure for `COc1cc2c(c(O)c1OC)C(=O)O[C@@H]1C[C@H](CCCO)O[C@H]21`: “inactive”; for `CCCC(=O)CC[C@H]1OC(=O)c2c1cc(O)c(OC)c2O`: “inactive”. For the compound `CCCC(=O)CC[C@@H]1OC(=O)c2c1cc(OC)c(OC)c2O`, the inhibition result is “inactive”. With `CCC[C@H]1C[C@H]2OC(=O)c3c(cc(OC)c(O)c3O)[C@H]2O1` the entry was “inactive”. Take `COc1cc2c(c(O)c1OC)C(=O)O[C@@H]1C[C@H](CCC(=O)O)O[C@H]21`: the inhibition result was “inactive”. In the case of `CCC[C@H]1C[C@H]2OC(=O)c3c(cc(OC)c(OC)c3O)[C@@H]2O1`, the inhibition entry was “inactive”. The same measure for `CCC(O)Cc1c(OC)cc(=O)oc1C` (configuration not stated): “inactive”; for `CCCCc1c(OC)cc(=O)oc1CO`: “inactive”.

For the compound `CCC[C@@H]1C[C@H]2OC(=O)c3c(cc(O)c(OC)c3O)[C@@H]2O1`, the inhibition entry was “inactive”. With `COc1cc2c(c(O)c1OC)C(=O)O[C@@H]1C[C@H](C[C@@H](C)O)O[C@H]21` the entry was “inactive”; with `COc1cc(=O)oc(C)c1CCC(C)O` (configuration not stated), “inactive”; with `CC[C@H](O)[C@H]1C[C@H]2OC(=O)c3c(cc(OC)c(OC)c3O)[C@H]2O1`, “inactive”. On to `CC[C@@H](O)[C@H]1C[C@H]2OC(=O)c3c(cc(OC)c(OC)c3O)[C@H]2O1`, for which the inhibition entry was “inactive”.
